From US11911404B2, “Fucosylation and immune surveillance in melanoma” (H. LEE MOFFITT CANCER CENTER AND RESEARCH INSTITUTE, INC., priority 2017, dated 2024)
Entries after “also recorded” stand apart in the source; their conditions may differ.

Tests used:
HLA-DRB1 = experiment: Flow cytometry of cell surface presentation, normalized to PKH26; format: cell-based, human; details: WM793 cells, L-fucose treatment (FIG. 16B)
Method: […] Stained cells were subjected to flow cytometric analyses and quantitation of protein signal/PKH26 signal to quantitate protein per relatice surface area.
FIGS. 16A and 16B show HLA-DRB1 is fucosylated on N48, and fucosylation promotes its cell surface presentation. […] AAL or HLA-DRB1 signals were normalized to PKH26 (total membrane stain).
To determine molecular mechanisms underlying the effects of fucosylation, a click-chemistry-based proteomic screen was performed to identify all fucosylated proteins in melanoma cells. 2 fucosylated immunomodulatory proteins, HLA-A and HLA-DRB1, were identified in melanoma cells. Fucose-binding lectin pulldown and immunoblot analysis confirmed the i) the expression and ii) the fucosylation of these 2 HLA proteins in melanoma cells, and further, indicate that their fucosylation is reduced when comparing patient-matched primary vs. metastatic cell lines (FIGS. 6A & 6C). The proximity ligation analysis technique, a cutting edge technique conventionally implemented to visualize 2 directly interacting proteins or post-translationally modified species of specific proteins when antibodies for the modifications are available (e.g., phosphorylated Tyr using an anti-phospho-Tyr antibody). […]

SW1 mouse melanoma [1] = experiment: Growth of control, H2K1- or IEβ-knocked down SW1 tumors in mice fed ±100 mM L-fucose water; format: in vivo
Source text: N=7 mice/condition. •:p<0.01. […] (*initiate L-fucose).
(§1) Fucosylation of HLA-DRB1 occurs on amino acid N48 (mutation to G abolishes interaction with fucose-binding AAL lectin) (FIG. 16A). Increasing fucosylation (L-fucose treatment) promotes cell surface abundance of HLA-DRB1 (which is expected to increase CD4^+ T cell activation) (FIG. 16B). […] A lectin-mediated proximity ligation technique was developed to visualize fucosylated HLA-DRB1 in cells and tissues (FIG. 18).

1205Lu melanoma cells = experiment: LDH-release cytotoxicity assay, NK cell co-culture with pre-treated melanoma cells; format: cell-based, human; details: 1205Lu cells pre-treated with 250 μM, 8 h co-culture
Method: After 8 h, LDH levels released in the media were measured. *=p 0.02; •=p<0.001. FIGS. 5C and 5D show Immunoblot analysis using AAL lectin (another fucose-binding lectin) was performed to confirm the effects of FUTi (C) or L-fucose (D) on 1205Lu cells (96 h treatment). (•: p-value≥0.02)(*: p-value≥0.002).
The possibility that tumor fucosylation can directly activate the tumor cell-killing activity of NK cells was explored. To assay for this possibility, a lactate dehydrogenase (LDH)-release-based assay was used in which the fucosylation of LU1205 melanoma cells was modulated prior to co-culture with NK cells. Specifically, primary NK cells isolates (5A) or immortalized NK92 cell line (5B) were co-cultured with 1205Lu melanoma cells that were pre-treated with DMSO, 250 μM pan-fucosyltransferase inhibitor (FUTi), or 250 μM L-fucose for 8 hours. Non-radioactive LDH-release cytotoxicity assay was performed to measure extent of NK cell-mediated killing. […] (•: p-value≥0.02) (*: p-value≥0.002).

[2] = tested on: SW1 mouse melanoma tumors; experiment: Flow cytometric analysis of tumor-infiltrating lymphocytes in SW1 tumors; format: in vivo; details: for tumor-infiltrating CD4+ and CD8+ T cells: dietary fucose vs control diet
Method: (§2) To determine which immune cell populations were affected by L-fucose, another mouse melanoma model treated with control or L-fucose-supplemented water was used. First, 1.25×10^6 SW1 mouse melanoma cells were injected into the back right flanks of the mice and allowed the tumors to grow to 150 mm^3. At 150 mm^3 (14 days), 100 mM L-fucose was administered via the drinking water to half of the mice. Tumor growth was monitored (FIGS. 3A and 3B). Total and specific subpopulations of tumor-infiltrating lymphocytes were assessed by cell flow cytometric analysis (FIGS. 3C and 3D). Assessed populations included F4/80 (macrophage)-, Gr-1 (MDSCs)-, Cd11c (Dendritic cells)-, and DX5 (NK cells)-positive cells. For T-cells, we probed for CD3 (general T-cell marker) and further for CD4 and CD8 (for those T cell subpopulations). Of the CD4-positive cells, CD25 positive cells was used to elucidate the T regulatory cells. […] Both CD4 and CD8 positive T cells (CD3+ cells) increased in response to fucose. However, myeloid derived suppressor cells (MDSCs) decreased in response to dietary fucose supplementation.
This SW1 melanoma tumor/C3H mouse isogenic model was recapitulated to profile—in detail—tumor-infiltrating immune populations. >65% reduced tumor growth was observed during dietary L-fucose supplementation (FIG. 4A). […] Although most tumor-suppressive immune cell types were increased in the fucosylation-high, smaller tumors, tumor-infiltrating CD4+ and CD8+ T cells were most increased-doubled-in these tumors compared to control diet tumors (FIG. 4B, left and right). […] The presence and cytolytic activity of CD4+ T cells in tumors has been correlated with better patient survival rates and increased responsiveness to immunotherapies, respectively.

[3] = tested on: SW1 mouse melanoma tumors; experiment: as above; format: in vivo; details: L-fucose treatment, CD4+ T cell-depleted mice (FIG. 4D)
melanoma tumors = experiment: Immunofluorescent staining of tumors for immune cell infiltration (CD45, DX5); format: in vivo, mouse; details: for infiltration of tumors by CD45+ immune cells (leukocytes) and NK cells: dietary fucose supplementation
Method: (§3) To determine whether dietary or genetic modulation of fucosylation affects tumor growth and metastasis, we previously studied a mouse melanoma model in which tumor fucosylation was increased either by dietary supplementation (FIG. 2A) with 100 mM fucose or by overexpressing mouse FUK (FIG. 2B). […] To determine whether fucosylation affects tumor infiltration by immune cells, Immunofluorescent staining analysis of CD45 (general leukocyte marker, red) and DAPI (blue) was performed (FIG. 2C). To determine whether fucosylation affects tumor infiltration by NK cells, immunofluorescent staining analysis for DX5 (an NK cell marker, red) and DAPI (blue) was performed (FIG. 2D). Both NK cells and CD4+ T cells were elevated in samples from fucose supplemented mice.

mouse melanoma model = experiment: Mouse melanoma model, dietary fucose supplementation: tumor growth and metastasis; format: in vivo
Method: as §3

SW1 mouse melanoma cells = experiment: SW1 mouse melanoma tumor growth in C3H mice fed control or L-fucose water, with or without CD4+/CD8+ T cell depletion; format: in vivo
Method: as §2
This SW1 melanoma tumor/C3H mouse isogenic model was recapitulated to profile—in detail—tumor-infiltrating immune populations. >65% reduced tumor growth was observed during dietary L-fucose supplementation (FIG. 4A). […]

SW1 mouse melanoma [4] = experiment: SW1 tumor growth in mice fed ±L-fucose and treated with anti-CTLA4 or anti-PD1; format: in vivo; details: SW1/C3H/HeJ model, oral 100 mM L-fucose from day 14; antibodies 20 mg/kg twice weekly
Method: SW1 tumor growth curves in mice fed±100 mM L-fucose treated with either control (PBS) or […] (17A) or α-PD1 (17B). Combinations are color-coded as indicated. N=8 mice per condition. L-fucose was administered in the water starting on day 14 (refreshed twice weekly); α-CTLA4 or α-PD1 was administered (20 mg/kg each) twice weekly starting day 14. Compared with PBS control: #: p<0.001; *: p<0.05:
as §1

RPS3 = RPS3 fucosylation by lectin pull-down after cellular stressors; format: cell-based, human; details: melanoma cells treated 24-48 h, lectin PD (FIG. 12)
Source text: Specifically, (11A) RPS3 level in increased in melanoma cells relative to primary melanocytes (HEMN, human epidermal melanocytes). (11B) RPS3 is increased in melanoma through progression in human samples by TMA. TMA stained and analyzed by AQUA at Moffitt Cancer Center Department of Clinical Testing Development Core Facility. (11C) Nuclear RPS3 level increases with stage in matched primary and metastatic (MET) samples relative to HEMN cells (cell fractions analyzed by western blot [left]; cells analyzed by immunofluorescence [right]). (11D) Expression of RPS3-mDDK in vertical growth phase cells confers behavior associated with metastatic disease. Increased anchorage-independent growth [left], increased motility [right]. It was noted that Fucosylated RPS3 level increases in response to cellular stressors. Melanoma cells treated for 24-48 h with serum deprivation (SD), thapsigargin (T, thap) or mutant BRAF-inhibitor (Plexxikon, PLX) and assayed for RPS3 fucosylation by lectin PD (FIG. 12).

In the case of `C[C@H](O)[C@@H](O)[C@@H](O)[C@H](O)C=O` [L-fucose], the “cell surface abundance of HLA-DRB1” value (HLA-DRB1) is reported as “promotes”, the “difference in ±L-fuc tumor growth curves in H2K1 knocked-down tumors” value (SW1 mouse melanoma [1]; shH2K1, ±100 mM L-fucose water) is reported as “not significant” and the “L-fucose-triggered tumor suppression in IEβ (HLA-DRB1 ortholog) knocked-down tumors” value (SW1 mouse melanoma [1]; shIEβ vs control shRNA (SCR), ±100 mM L-fucose water) is reported as “abrogates; also recorded: not significant”. The “NK cell-mediated tumor-cell killing (LDH release), immortalized human NK cells” value (1205Lu melanoma cells) was “sufficient to induce the tumor-cell killing activity”, the “NK cell-mediated tumor-cell killing (LDH release), primary human NK cells” value (1205Lu melanoma cells) was “sufficient to induce the tumor-cell killing activity” and the “increase of NK cells, T cells (CD4+ and CD8+), dendritic cells and macrophage” value ([2]; administration of fucose) was 10-50 fold. The “overall immune infiltration of tumors” value ([2]; dietary fucose supplementation, 100 mM in drinking water) was “increases”, the “myeloid derived suppressor cells (MDSCs) in tumors” value ([2]; dietary fucose supplementation, listed as fucose) was “decrease” and the “tumor-infiltrating CD4+ and CD8+ T cells” value [2] was “doubled”. For the same compound, the “tumor-infiltrating CD4+ and CD8+ T cells” value ([2]; listed as fucose) was “increase”, the “infiltrating immune cells per gram of tumor vs control diet” value ([2]; tumors from L-fucose-supplemented mice) was 10-50 fold and the “numbers of intratumoral CD8+ T cells, CD11c+ dendritic cells and NK cells” value [3] was “reduced numbers”. For the same compound, the “infiltration of tumors by CD45+ immune cells (leukocytes) and NK cells” value (melanoma tumors) was “significant increases”, the “infiltration of tumors by CD45+ immune cells (leukocytes) and NK cells” value (melanoma tumors; listed as fucose) was “increased” and the “NK cells and CD4+ T cells in tumor samples” value (melanoma tumors; fucose supplemented mice, immunofluorescence (FIGS. 2C, 2D)) was “elevated”. For the same compound, the “reduction in tumor growth” value (mouse melanoma model; L-fucose supplementation, earlier model) was over 50%, the “block of tumor growth and metastasis” value (mouse melanoma model; dietary L-fucose supplementation, mouse models) was over 50% and the tumor suppression (mouse melanoma model; dietary supplementation with 100 mM fucose (FIG. 2A)) was “increased tumor suppression”. For the same compound, the “L-fucose-triggered tumor suppression after loss of CD4+ T cells” value (SW1 mouse melanoma cells; CD4+ T cell-immunodepleted mice (FIG. 4C left)) was “abrogated tumor suppression”, the reduced tumor growth (SW1 mouse melanoma cells; SW1/C3H model, dietary 100 mM L-fucose in water, 45 days (FIG. 4A)) was over 65% and the “suppression of melanoma growth compared with checkpoint antibodies” value (SW1 mouse melanoma [4]) was “more significantly than anti-CTLA4 or anti-PD1 alone; also recorded: more tumor suppressive than α-CTLA4 or α-PD1 alone”.
For `C/C=C(/C)C(=O)O[C@H]1C(C)=C2[C@H]([C@@H]1OC(=O)CCCCCCC)[C@@](C)(OC(C)=O)C[C@H](OC(=O)CCC)[C@@]1(O)[C@H]2OC(=O)[C@@]1(C)O` [thapsigargin], the “fucosylated RPS3 level” value (RPS3) was “increases”.
